Results taken from a melting point compilation (Tetko et al.; mined from patent text by program, amines drawn as free bases though some values may be those of a salt).

SMILES	melting point [°C]
O=C(C=Cc1cccnc1)NCCCCC1CCN(C(Br)(c2ccccc2)C2CCCCC2)CC1 (stereo unspecified)	143 to 145
COC(=O)CCn1c(=O)n(CCCCCN2CCN(c3cccc(C(F)(F)F)c3)CC2)c(=O)c2cscc21	99.5 to 101
CCN1c2ncc(CCCc3ccccc3)cc2C(=O)N(C)c2cccnc21	100 to 102
FC(F)(F)c1cc(N2CCN(Cc3ccc4ccccc4n3)CC2)ccc1Cl	61 to 64
CCOC(=O)/C=C/c1cc(C(F)(F)F)ccc1C(=O)NCC(F)(F)F	162
COc1cccc(OC)c1-c1ccc(C[C@H](NC(=O)c2c(Cl)cc(-c3ccc[nH]3)cc2Cl)C(=O)O)cc1	250
COc1ccc(CSc2nnc(-c3ccc4ncsc4c3)o2)cc1C(F)(F)F	145 to 146
O=C1N(Cc2ccc(C(F)(F)F)o2)c2ccccc2C12COc1cc3c(cc12)OCC3 (stereo unspecified)	174 to 177
COc1ccc2c(n1)C1(CO2)C(=O)N(Cc2ccc(C(F)(F)F)o2)c2ccc(F)cc21 (stereo unspecified)	158 to 160
C=C(CCl)COc1ccc(C(=O)OC)cc1CS(=O)(=O)c1ccccc1	92 to 93
Cn1c(=O)cc(-c2cccc(Cl)c2)c2cc(C(=O)c3cccc(I)c3)ccc21	235
COc1ccccc1C1=C(C#N)C(c2ccccc2[N+](=O)[O-])c2c[nH]nc2N1 (stereo unspecified)	207
CCOc1c([C@@H]2C[C@@H]2/C=C/C(C)=C/C(=O)O)cc(C(C)(C)C)cc1C(C)(C)C (racemic)	169 to 174
COc1ccc(C(=O)Oc2ccccc2)c(O)c1	61.5 to 62.5
c1ccc2c(c1)CCCc1c-2n[nH]c1-c1ccncc1	217 to 219
Cc1nc(-c2cn(CCc3ccc(F)cc3)nn2)sc1C(=O)NCc1cccnc1	149 to 150
CC(=CC#N)NCc1ccc(Cl)nc1	95 to 98
CNC(=O)NN(CC(=O)OC)c1cccc(OC)c1	145 to 146
Cc1[nH]cnc1Cn1nnnc1-c1cccc(Cl)c1Cl	151 to 153
COc1cc2oc(=O)c(CCO)c(C)c2cc1O	229 to 235
Brc1nc2ncsc2nc1Br	142 to 144
CCOC(=O)/C=C/c1cnn(C)c1C	82 to 83
O=C1CCC(c2cccc(C(F)(F)F)c2)=NN1	211 to 214
CCOC(=O)c1cc2cc(OC(C)=O)ccc2n1C	87 to 89

SMILES	melting point [°C]
CN(CCOc1ccc(C=C2SC(=O)NC2=O)cc1)c1nc2ccccc2o1	227 to 229
NN=c1[nH]c2ccc(Br)cc2cc1[N+](=O)[O-]	187
O=C(O)C(=O)C12CC3CC(CC(O)(C3)C1)C2	164 to 166
O=C1c2ccccc2C(O)N1c1ccc2ncccc2n1 (stereo unspecified)	208
CC(=O)Nc1nc2c(Oc3cc(-c4ccc(C(F)(F)F)cc4NCc4cncn4Cc4ccccc4)ncn3)cccc2s1	264
O=C(Oc1ccccc1)c1ccc(Oc2ccc([N+](=O)[O-])cc2)cc1O	118 to 120
N[C@@H]1CCN(c2ccc3c(NC(=O)CC4CCCCC4)c(Cl)ccc3n2)C1	201 to 206
CCOC(=O)CC(=O)c1cc(F)c(S(=O)CC)nc1Nc1ccc(F)cc1F (stereo unspecified)	115 to 116
O=c1[nH]c(=Cc2ccc(OCc3ccccc3)cn2)c(=O)[nH]c1=Cc1ccc([N+](=O)[O-])cc1	> 300
COc1cccc(CNC(=O)c2nc3scc(C(=O)NCc4ccc(C(=O)O)cc4)c3c(=O)[nH]2)c1	254 to 255
CCc1c(C(=O)OC)ncc2[nH]c3cc(OC)c(OC)cc3c12	207 to 209
CN1N=C2c3cc(F)ccc3SCC2CC1=O (stereo unspecified)	125 to 128
CCOCc1nc2c(N)nc3cc(Br)ccc3c2s1	201 to 204
Cc1ccc2c3c(ccc2n1)OC[C@H](CN1CCN(c2ccc(C)c(C)c2)CC1)O3	118 to 120
Cc1cc(C)c(Nc2nc(C)ncc2S(=O)(=O)c2ccc(O)cc2)c(C)c1	246 to 248
CCOC(=O)c1cnc(SC)nc1NC	91 to 93
CC(C)CN1C(=O)[C@@H](CC(=O)O)O[C@H](c2ccccc2OCc2ccccc2)c2cc(Cl)ccc21 (relative stereo)	194 to 197
CN1CC(=O)NC(=O)N1c1cc(Cl)c(Oc2ccc(S(C)(=O)=O)cc2)c(Cl)c1	223
CCn1c(COC)nc(C(C)C)c1Sc1cc(C#N)cc(C#N)c1	156 to 158
COc1ccc2c(Cc3ncc(Cl)cc3Cl)nncc2c1C=Cc1ccccc1	180 to 182
Cc1cccc(CC(Nc2ccccc2)C(=O)NC(C#N)COCc2cccc(-c3nnn[nH]3)c2)c1 (stereo unspecified)	120 to 122
CCC(=O)c1c(-c2ccncc2)[nH]c(-c2ccncc2)c1CC	209 to 211
COc1cc(C(=O)c2ccccc2F)cc([N+](=O)[O-])c1O	127 to 129
CC(C)C(NC(=O)Nc1ccc(C(=O)NCC(=O)N(C)C)cc1)C(=O)N1CCCC1C(=O)NC(C(=O)C(F)(F)F)C(C)C (mixture of isomers)	115 to 125

SMILES	melting point [°C]
COCCn1cc(C2CCN(CCOc3ccccc3C(=O)O)CC2)c2ccccc21	139 to 140
CC(C)(C)CCNC(=O)c1coc(C2C3CCC(O3)C2Cc2ccccc2CCC(=O)O)n1 (stereo unspecified)	160 to 162
CN(C)c1ccc(NC(=O)N(CC2CCCCC2)C[C@H]2CCCC[C@H]2CN(CC2CCCCC2)C(=O)Nc2ccc(N(C)C)cc2)cc1	102 to 106
COc1cc(Oc2cccc(SC(F)(F)F)c2)nc(C(=O)NC(C)C)c1	70 to 76
O=C(C(c1ccccc1)n1cnc2[nH]ncc2c1=S)N1CCCCCC1 (stereo unspecified)	> 230
N=C(N)c1ccc(N2CCC(N3CCN(CCC(=O)O)C3=O)CC2)cc1	> 275
NC(=O)c1sc2nccc(NCCCc3ccccc3)c2c1N	232 to 234
c1ccc(C2=NC(c3ccccc3)C3=C(N2)c2nc(-c4ccccc4)cc(-c4ccccc4)c2CC3)cc1 (stereo unspecified)	142 to 144
CCCc1cc(NC(=O)C(=O)OCC)sc1C(=O)OCC	93 to 94
CC1(C)C(=O)Oc2ccc3cc(C(=O)NCC(F)(F)F)c(Cn4cncn4)cc3c21	200 to 201
O=C(CN(C(=O)C(=O)N(CC(=O)OCc1ccccc1)S(=O)(=O)C(F)(F)F)S(=O)(=O)C(F)(F)F)OCc1ccccc1	53 to 55
O=c1nc(-c2ccsc2)c2c(=O)nc(-c3ccsc3)c1=2	> 400
O=C(NC(=NCCSCc1cccs1)NCCCc1c[nH]cn1)c1ccccc1	128 to 129
CCc1cn(C2CC(OC(C)=O)C(CN(C)C(=O)Cc3ccccc3Br)O2)c(=O)[nH]c1=O (stereo unspecified)	170
C=CCN1CCN(C2=NC3(C=CC(=O)C=C3)C(Sc3ccccc3)=C2)CC1	175
CCCc1nn(-c2ccc(C(F)(F)F)cc2)cc1CCCOc1c(CC(=O)O)cccc1OC	95 to 96
CC(c1cc(Cl)cc(Cl)c1O)c1cc(F)cc(Cc2cc(Cl)ccc2O)c1O (stereo unspecified)	166
Cc1c(C(=O)N[C@@H](Cc2ccc(OCc3ccoc3)cc2)C(=O)O)oc2cc(-c3ccc(Cl)cc3)ccc12	108 to 110
CCOC(C)OCc1ccccc1C(=NO)C(=O)NC (stereo unspecified)	85 to 87
N#Cc1ccc(C(=O)N2CCC3(CC2)OCCO3)cn1	133 to 135
CC(C)(C)c1cc(C(=O)NCc2ccc(N)cc2)cc(C(C)(C)C)c1O	188 to 189
C[C@H](C#Cc1ccc(Cc2cc3ccccc3s2)s1)N(O)C(N)=O	157 to 159
Cc1ccc(S(=O)(=O)C=CC#N)cc1NS(=O)(=O)c1ccc2ccccc2c1	214 to 216
O=C(Nc1cccc(Cl)c1)C1=Cc2ccccc2S1=O (stereo unspecified)	257 to 258

SMILES	melting point [°C]
COc1cc2cn(-c3nccs3)nc2cc1OC	184 to 187
CNC(=O)c1cc(-c2ccc(OC)c(F)c2)nn(CC(C)C)c1=O	153 to 155
CC(C)CNc1c(N)c2nnnn2c2cnccc12	203 to 204
Fc1ccc2c(c1)NCc1c(-c3noc(C4CC4)n3)ncn1-2	263 to 265
CC1(C)CSSC[C@@H](C(=O)O)NC1=O	160 to 162
CCOc1ccc(-c2c(C(=O)OC)c(C(=O)OC)c(O)c3cc(OC)c(OC)c(OC)c23)cc1OC	159
CC(O)c1ccc(-c2ccc(Cl)c(Cl)c2)o1 (stereo unspecified)	82.5 to 83.5
O=C(NCCCc1ccncc1)N1CCOCC1	94 to 98
Cc1cc2c(cc1C)C(c1ccccc1Cl)C(=O)N2 (stereo unspecified)	231
COc1ccc(-c2ncc(Cc3ccccc3)nc2-c2ccc(OC)cc2)cc1	107 to 109
O=Cc1cnc(Oc2ccccc2)s1	50
CC(C)(C)c1ccc(Nc2ncc(-c3ccc4ncncc4c3)c3ccccc23)cc1	213 to 214
Cc1nc2c(c3c1[nH]c1ccc(F)cc13)C(=O)CC(C(C)C)C2 (stereo unspecified)	221 to 223
O=C(O)c1ccccc1Oc1ccc(Br)cc1[N+](=O)[O-]	136 to 138
CC(C)(NS(=O)(=O)c1ccc2c(Cl)cnc(Cl)c2c1)C(N)=O	220 to 222
CCCCOc1ccc2nc(C(=O)O)c(OCc3ccccc3)cc2c1	108 to 110
O=C(O)c1nc2ccc(OCCCN3CCC(OC(c4ccccc4)c4ccccc4)CC3)nn2n1	173 to 177
Cc1c(C)c(N2CCN(c3ncccn3)CC2)c(C)c2c1OC(C)(C)C2	145 to 147
Cn1cccc(O)c1=O	129 to 131
CC(C)c1cc(-c2ccc(F)cc2)cc(-c2ccc(F)cc2)c1C=O	110 to 112
O=c1nc(-c2cccc(CN3CCN(c4ccc(F)cc4)CC3)n2)sc2ccccc12	156 to 157
Cc1ccc(NS(=O)(=O)c2cc(S(=O)(=O)Nc3ccc(C)cc3C)c3cc(O)ccc3c2)c(C)c1	116 to 118
O=C(O)c1ccc2c(=O)n(CCCCN3CC=C(c4ccccc4)CC3)c(=O)[nH]c2c1	296 to 305
CC(Oc1ccc(Cl)cc1)c1nnc(N)s1 (stereo unspecified)	162 to 166
